Measured values reported in patent publication US20250122193A1, “NOVEL PYRIDOCARBAZOLIUM COMPOUNDS AND MEDICAL USES THEREOF” (MyCural Therapeutics, priority 2021, published 2025).

Tests used:
[1] = tested on: primary patient derived glioblastoma cells; assay: primary glioblastoma cultures, resazurin assay; details: 42 patients, 2D cultures, 72 hours
Description: A) Primary glioblastoma samples from 42 patient biopsies were cultured for 72 hours in presence of MYCMI-7 at indicated doses and cell growth was measured by the resazurin assay.
Viability measurements in glioblastoma initiating cell cultures: The adherent human glioblastoma initiating cell cultures (2) were seeded on laminin-coated 384-well microplates (BD Falcon Optilux #353962). […] Cell cultures (45 for screen 2 and 24/29 for screen 3) were plated one day prior to treatment using a Multidrop plate dispenser (ThermoScientific). Drugs were transferred using an ECHO550 non-contact liquid dispenser (Labcyte, USA) to a 384 standard dispensing plate. The substances were subsequently diluted in medium and lifted with a 384 head and a Janus MTD liquid dispenser (PerkinElmer, USA) to the cell plates. The screening experiment was assayed for viability using resazurin (R7017, Sigma Aldrich) after 72 hours of treatment as previously described (3), and detected by a fluorescent plate reader (EnVision multilabel reader, PerkinElmer) at excitation and emission wavelengths of 535/595 nm. As a negative control, DMSO vehicle was added at 4 different concentrations (16 wells/plate) and doxorubicin was used as a positive control (one 11-dose response curve on each plate). Each treatment dose was mapped to their individual exact DMSO concentration for normalization. […]

[2] = tested on: MDA-MB-231 xenograft tumors; assay: MDA-MB-231 xenograft
Description: A) Tumor growth of MDA-MB-231 xenografts in mice injected with 6.25 mg/kg MYCMI-7 or vehicle intratumorally twice a week until sacrificed. Tumor growth was monitored by measuring tumor size (mm^3) every 4th day. B) Survival curve of the mice in A) sacrificed when the tumors reached a volume of 1000 mm^3. C) Immunohistochemistry staining for MYC and apoptosis marker caspase 3 in MDA-MB-231 tumor tissue from vehicle- and MYCMI-7 treated animals at end point, D) Immunofluorescence staining of proliferation and apoptosis markers Ki67 and TUNEL, respectively, in MDA-MB-231 xenograft tumor tissue from vehicle- and MYCMI-7 treated animals at end point. E) MYCN-amplified SK-N-DZ neuroblastoma xenograft mice injected with 6.25 mg/kg MYCMI-7 or vehicle intratumorally twice a week until sacrificed. Tumor growth was monitored by measuring tumor volume (ml) daily. F) Survival curve of mice in E) sacrificed at a tumor volume of 1500 mm^3. G-H) H&E (G) and MYCN IHC (H) stainings of SK-N-DZ xenograft tumor tissue from vehicle- and MYCMI-7 treated animals at end point. A-H) At the end points, the last injection was done 3 hrs before sacrifice. Images were taken at 10× or 40× magnification.
For the xenograft transplantation mouse tumor models of breast cancer and neuroblastoma, 6-8 weeks old NOD/SCID mice (Taconic) or NMRI nu/nu (Scanbur) were injected s.c. with 5×10^6 MDA-MB-231 breast cancer cells or MYCN-amplified SK-N-DZ neuroblastoma cells. When tumors reached a size of 100-200 mm^3, mice started receiving treatment (6.25 mg/kg MYCMI-7) administered intratumorally (50 ml) twice per week. The last dose was administered 3 hrs before termination. Mice were sacrificed when the tumors had reached as size of 1000 mm^3 (MDA-MB-231) or 1500 mm^3 (SK-N-DZ). Tumors were collected and frozen in OCT (Cryomount, Histolab) or fixed in buffered 4% formaldehyde solution (Histolab) and paraffin-embedded.
Immunohistochemistry andimmunofluorescence: Apoptosis was visualized at the single-cell level on tumor cryosections using the TUNEL method using the In Situ Cell Death Detection Fluorescein-Roche kit and analyzed by fluorescence microscopy. Briefly, tumor cryosections were fixed in 4% paraformaldyde (PFA) and the assay was performed following the instructions from the manufacturer. Negative controls were run using the reagent without the TdT enzyme. Samples were mounted using Vectashield mounting medium (Vector) and DAPI was used as nuclear counterstaining. […] Visualization and image acquisition was done in a Zeiss microscope, and for panoramic views by a Vectra imaging system. For quantification, areas with positive TUNEL and Ki67 staining were measured using Image J software.

HCT116-TIR-AID cells = assay: auxin-induced TOP2A depletion in HCT116 cells; format: cell-based
normal REFs = assay: apoptosis assay (Cell Death Detection ELISA), normal REFs; format: cell-based, rat; details: 5 μM, 24 and 48 hours
Description: (§1) FIG. 4: MYCMI-7 induces apoptosis in malignant cells and growth arrest in normal cells. A) Cell cycle distribution analysis by flow cytometry of MYC-regulated P493-6 cells and normal rat embryo fibroblasts (REFs). Left panel, P493-6 synchronized in G0 by 24 hours treatment of […] doxycycline. Doxycycline was removed and the cells were harvested 48 hours after the addition of fresh medium containing DMSO or 5 μM MYCMI-7. Right panel, flow cytometry analysis of normal REFs treated with DMSO or 5 μM MYCMI-7. B) Apoptosis assay using the Cell Death Detection ELISA^plus kit. Left panel, immortalized Rat1 fibroblasts with different MYC status after 24 hours of 5 μM MYCMI-7 treatment, middle panel and right panels, normal REFs and normal peripheral blood lymphocytes, respectively, after 24 and 48 hours of 5 μM MYCMI-7 treatment. C) Measurement of viability and apoptosis by Apo-Tox Glo Triplex assay in A375 melanoma cells after 3 days of treatment with MYCMI-7 with the indicated concentrations. […] E) NHDFs treated with 3 μM MYCMI-7 for 72 hrs. Viability was measured by trypan blue exclusion assay. F) Cell growth measured with Cyt62 assay of primary normal human epidermal melanocytes (NHEM) treated for 72 hours with MYCMI-7, G) Viability measured by trypan blue exclusion assay of NHEM after treatment for 72 hours with MYCMI-7.

in vivo = details: mouse, plasma, ip, 6.25 mg/kg
Description: Blood and brains were collected from three to four mice per group at 0, 1, 2, 4 and 24 hours following injection of 6.25 mg/kg ToM. Plasma samples were extracted using protein precipitation. Brain samples were extracted by homogenization in acetonitrile:DMSO, 95:5 using a gentleMACS Dissociater and gentleMACS™ M Tubes. The protein in the mouse plasma samples was removed by protein precipitation with acetonitrile containing the internal standard. After protein precipitation the study samples were centrifuged, and the resulting supernatant was analyzed. The acetonitrile:DMSO from the brain sample homogenates were spiked with the internal standard and then analyzed. All samples were analyzed by first separating them by reversed phase gradient LC and subsequently detecting them using positive electrospray ionization and multiple reaction monitoring (MRM).
(§2) First, we performed a pharmacokinetic study of the behavior of the molecule in mice.

[3] = tested on: immortalized Rat1 fibroblasts with different MYC status; assay: apoptosis assay (Cell Death Detection ELISA), Rat1 fibroblasts; format: cell-based, rat; details: 24 hours
Description: as §1

[4] = tested on: Burkitt's lymphoma cell lines; assay: growth of Burkitt's lymphoma cell lines; format: cell-based
Description: Cell culture and transfection: HeLa, MCF7, MDA-MB-231, U20S, HCT116, SK-N-F1, SK-N-RA, SK-N-AS, COS-7, Rat1 fibroblasts (Tgrl, H015.19 and HOMYC3), primary rat embryonic fibroblasts (REFs) were maintained in DMEM and Kelly, IMR-32, SK-N-DZ, P493-6, Daudi, CA46 and Ramos were kept in RPMI. In addition, the medium for H015.19 and primary REFs contained 1% sodium pyruvate. […] U20S-MYC-ER cell lines were cultured in phenol-red free DMEM and treated with 100 nM 4-hydroxytamoxifen (4-OHT) (Sigma-Aldrich) to activate MYC-ER. […] Transfection of HeLa cells was performed using Lipofectamine 2000 reagent (Invitrogen) according to manufacturer's instructions. For transfection of 293-T, U20S and REFs, FuGene6 (ROCHE) was used in accordance with manufacturer's recommendations. The proteasome inhibitor Z-leu-leu-leu-H aldehyde ([…]) (Peptides International) was used at 40 μM concentration.

P493-6 cells = assay: cell cycle distribution by flow cytometry, P493-6; format: cell-based; details: 5 μM, 48 hours
Description: FIG. 4: MYCMI-7 induces apoptosis in malignant cells and growth arrest in normal cells. A) Cell cycle distribution analysis by flow cytometry of MYC-regulated P493-6 cells and normal rat embryo fibroblasts (REFs). Left panel, P493-6 synchronized in G0 by 24 hours treatment of […] doxycycline. Doxycycline was removed and the cells were harvested 48 hours after the addition of fresh medium containing DMSO or 5 μM MYCMI-7. Right panel, flow cytometry analysis of normal REFs treated with DMSO or 5 μM MYCMI-7. B) Apoptosis assay using the Cell Death Detection ELISA^plus kit. Left panel, immortalized Rat1 fibroblasts with different MYC status after 24 hours of 5 μM MYCMI-7 treatment, middle panel and right panels, normal REFs and normal peripheral blood lymphocytes, respectively, after 24 and 48 hours of 5 μM MYCMI-7 treatment. […] Viability was measured by trypan blue exclusion assay. F) Cell growth measured with Cyt62 assay of primary normal human epidermal melanocytes (NHEM) treated for 72 hours with MYCMI-7, G) Viability measured by trypan blue exclusion assay of NHEM after treatment for 72 hours with MYCMI-7.
Flow cytometry: P493-6 cells were synchronized using 1 μg/ml doxycycline. […] Cells were stained with propidium iodide (Sigma) and 1×10^4 cells per treatment were analyzed using a FACScan and CellQuestPro (Becton Dickinson). […]

[5] = intracerebroventricular injection, toxicity; details: highest concentration (10 μM)
Description: as §2

phosphorylation of ATM = assay: phospho-ATM and p53 by western blot, A375; format: cell-based; details: 5 μM, A375 cells, 3 hrs
Description: A) Measurement of MYC mRNA expression by RTqPCR after treatment with MYCMI-7 and different topoisomerase inhibitors at indicated concentrations. […] D) Western blot analysis of p53 and p21 expression after exposure to 5 μM MYCMI-7, ellipticine or camptothecin (CPT) in HCT116 cells. E) Western blot analysis of phospho-ATM, total ATM and p53 expression after exposure to indicated concentrations of MYCMI-7 and ellipticine in A375 cells after 3 hrs treatment.
For western blot equal amounts of proteins ([…]) were separated on a 4-12% SDS-PAGE gel. Proteins were transferred to Immobilion-P membrane (Millipore) and detected by immunostaining and chemoluminescence (Immobilion western HRP substrate; Millipore). For immunoprecipitations 500-1000 μg of protein was used. […] Briefly, cells were crosslinked with 1% formaldehyde on ice for 6 minutes. Nuclear chromatin was sonicated on ice to fragments from 0.3 kb to 0.5 kb. Nuclear chromatin equivalent to 2.5×10^7 cells was immunoprecipitated with 2 μg antibody.

[6] = tested on: HO15.19 (MYC-/-) Rat1 fibroblasts; assay: WST-1 growth/viability assay, MYC null Rat1 fibroblasts
Description: (§3) A) Immortalized Rat1 fibroblasts with different MYC status; TGR1 (wt MYC), HO15.19 (MYC−/−) and HOMyc3 (HO15.19 with reconstituted MYC) were treated with indicated concentrations of MYCMI-7 for 48 hours. Cell proliferation/viability/metabolic activity was measured using the WST-1 assay. […] “Responsive” and “less responsive”; cell lines with positive and negative log 10 GI50 values, respectively. […] For the WST-1 assays the average of three different experiments performed in triplicates is shown.
(§4) Cell growth and viability assays: Cell growth and viability was estimated in triplicates with WST-1 (Roche) or Resazurin sodium salt (Sigma-Aldrich) assays in medium at 37° C. and 5% CO2 for 2 hours after which absorbance or fluorescence, respectively, was measured with an Omega Fluostar (BMG Labtech) in a 96 well plate format.

MDA-MB-231 = MDA-MB-231 cells in cell culture; format: cell-based; details: Homo sapiens
Description: We next studied the effects of MYCMI-7 in a xenograft model of the human basal-like breast cancer cell line MDA-MB-231. The cells were highly sensitive to MYCMI-7 treatment in cell culture (data not shown), with a GI50 around 1 μM.

[7] = tested on: Rat1 fibroblasts TGR1 (wt MYC) and HOMyc3 (reconstituted MYC); assay: WST-1 growth/viability assay, MYC-expressing Rat1 fibroblasts; format: cell-based, rat; details: Rattus norvegicus, TGR1, 48 h, read-out: GI50 (average growth inhibition of 50%)
Description: as §3, §4

[8] = 6.25 mg/kg intratumoral twice weekly

SMILES: CCN(CC)CC[n+]1ccc2c(C)c3[nH]c4ccccc4c3c(C)c2c1 [MYCMI-7, 2-(5,11-Dimethyl-6H-25-pyrido[4,3-b]carbazol-2-yl)-N,N-diethylethanamine bromide]
- GI50 [1]: submicromolar range
- survival [2, 8]: significantly increased survival
- tumor growth [2, 8]: slowed down considerably
- H&E staining of tumor areas ([2]; mouse, in vivo): extensive necrosis/apoptosis
- MYC expression in tumors (IHC) ([2]; mouse, in vivo): reduced expression of MYC
- TUNEL staining ([2]; mouse, in vivo): increased TUNEL staining
- caspase 3 expression in tumors (IHC) ([2]; mouse, in vivo): increased caspase 3 expression
- proliferation and microvascular density (Ki67, CD31) ([2]; mouse, in vivo): reduced proliferation and microvascular density
- effect of TOP2A depletion on sensitivity to MYCMI-7 (resazurin assay) (HCT116-TIR-AID cells; auxin-induced depletion): does not affect
- effect of TOP2A depletion on MYCMI-7-induced inhibition of MYC:MAX interactions (isPLA) (HCT116-TIR-AID cells; pre-treatment with auxin): no effect
- apoptosis (normal REFs): did not induce apoptosis
- half-life (in vivo): 1.5 h
- apoptosis ([3]; MYC knockout HO15.19, 5 μM): not
- apoptosis ([3]; TGR1 and HOMyc3, 5 μM): induced apoptosis
- growth of three Burkitt's lymphoma cell lines [4]: strongly reduced growth
- G1/S ratio compared to DMSO (P493-6 cells): higher G1/S ratio
- cell death (sub-G1 cells) (P493-6 cells): strongly induced cell death
- toxicity after intracerebroventricular injection [5]: no signs of toxicity
- phosphorylation of ATM and p53 expression (DDR signaling) (phosphorylation of ATM): only a slight increase
- concentration above which viability of HO15.19 cells started to go down (off target effects) [6]: higher than 10 μM
- proliferation/viability of MYC null cells ([6]; concentrations of 10 μM, WST-1): unaffected
- GI50 (MDA-MB-231): ~1 µM
- GI50 [7]: ~2 µM
